Data on one compound can be found in patent publication US20040167181A1, “Methods of treating conditions associated with an Edg-3 receptor” (priority 2003, published 2004).

In one assay the test system is Adrenergic β. Description: Radioligand binding assay, Adrenergic β. As to conditions: Wistar rat brain; 0.25 nM 3H Dihydroaplenolol; significance criteria ≦50% of max stimulation or inhibition. On the procedure:
(§1) In order to test the selectivity of compounds, various radioligand binding assays were performed using numerous non-Edg receptor targets as listed below.
(§2) A radioligand binding assay was performed using adrenergic α1 according to the method of Greengrass and Bremner 1979, Eur. J. Pharmacol. 55:323-326. A radioligand binding assay was performed using adrenergic α2 according to the method of Boyajian and Leslie, 1987, J. Pharmacol. Exp. Ther. 241:1092-1098. A radioligand binding assay was performed using adrenergic β according to the method of Feve et al., 1994, Proc. Natl. Acad. Sci. USA 91:5677-5681. A radioligand binding assay was performed using angiotensin AT2 according to the method of Whitebread et al., 1991, Biochem. Biophys. Res. Comm. 181:1365-1371. A radioligand binding assay was performed using calcium channel Type L, dihydropyridine according to the method of Ehlert et al., 1982, Life Sci. 30:2191-2202. A radioligand binding assay was performed using dopamine D2L according to the method of Bunzo et al., 1988, Nature 336:783-787. A radioligand binding assay was performed using endothelin ETA according to the method of Mihara et al., 1994, J. Pharmacol. Exp Ther. 268:1122-1127. A radioligand binding assay was performed using histamine H1 Central according to the method of Hill et al., 1978, J. Neurochem. 31:997-1004. […]
(§3) Quantitation Method: Radioligand Binding […]

In the next assay the test system is Adrenergic α2. Description: Radioligand binding assay, Adrenergic α2. To be noted: Wistar rat cerebral cortex; 0.7 nM 3H Rauwolscine; significance criteria ≦50% of max stimulation or inhibition. On the procedure: as §1, §2, §3

As for `Cc1c(-c2ccccc2)nc2ccccc2c1C(=O)NCc1ccc(F)cc1` [Compound 101], the “activity in radioligand binding assay” value with Adrenergic β and in the assay with Adrenergic α2 was “no significant activity” in each case.
